In experiment [1] the test system is mouse lung carcinoma cell line (3LL cells). The experiment can be described thus: Cell invasion inhibition assay (Matrigel invasion chamber). Format: cell-based. As to conditions: in words. On the procedure:
In this Pharmacological Test, the inhibitory effect of each test compound on cell invasion response was evaluated using a mouse lung carcinoma cell line (3LL cells), a mouse pancreatic cancer cell line (PANC02 cells), and a human breast cancer cell line (MDA-MB-157 cells). Of these, the mouse lung carcinoma cell line (3LL) is a cancer cell line with mutant Ras (K-Ras (G12C)), and the human breast cancer cell line (MDA-MB-157) is a cancer cell line with mutant Rac (Rac1 (P29S)). The experiments were performed in BD BioCoat Matrigel invasion chambers (BD Biosciences).
Specifically, an upper chamber with a Matrigel-coated membrane insert (8 μm pores) at the bottom was equilibrated with DMEM (serum-free medium) for 120 minutes. Thereafter, 300 μL of a suspension of a cancer cell line in DMEM (serum-free) was placed in the upper chamber while 500 μL of DMEM (with 10 mass % FCS) was placed in the lower chamber. Each test compound dissolved in DMSO at a predetermined concentration was added to both the culture media in the upper and lower chambers. As a control, DMSO alone was added to both the culture media in the upper and lower chambers. In all of the experiments, the final DMSO concentration in the culture media was adjusted to 0.2 mass %.
The resulting products were cultured under 5% CO2 at 37° C. for 22 hours (3LL and PANC02 cells) or 48 hours (MDA-MB-157 cells). Then, the upper chamber was removed, and the culture medium was removed. Thereafter, non-invading cells remaining in the upper chamber were removed using a cotton swab, and the cells remaining outside the bottom of the upper chamber (cells that had invaded into the Matrigel, and passed through the membrane insert) were stained with Diff-Quick (Sysmex). After staining, the membrane inserts with Matrigel were cut out using a scalpel to prepare slides, and the number of invading cells was counted under an optical microscope.
The results were evaluated based on percent cell invasion (%: Invasion) and percent inhibition (%: Inhibition). The percent cell invasion was obtained by converting the number of invading cells in the presence of each test compound into a percentage, taking the number of invading cells in the control test, in which DMSO was added alone, as 100%; and the percent inhibition was obtained by deducting the percent cell invasion from 100.

The target in a further experiment is T1, DOCK1 (DHR-2 domain) (Homo sapiens, UniProt Q14185).
T1 construct: polypeptide fragments corresponding to the DHR-2 domain of DOCK1 or DOCK2 from mice and humans; Histidine-SUMO (N); made in house; host or cells: E. coli Arctic express (DE3)
T1 sequence (Q14185 1207-1617 limits assumed): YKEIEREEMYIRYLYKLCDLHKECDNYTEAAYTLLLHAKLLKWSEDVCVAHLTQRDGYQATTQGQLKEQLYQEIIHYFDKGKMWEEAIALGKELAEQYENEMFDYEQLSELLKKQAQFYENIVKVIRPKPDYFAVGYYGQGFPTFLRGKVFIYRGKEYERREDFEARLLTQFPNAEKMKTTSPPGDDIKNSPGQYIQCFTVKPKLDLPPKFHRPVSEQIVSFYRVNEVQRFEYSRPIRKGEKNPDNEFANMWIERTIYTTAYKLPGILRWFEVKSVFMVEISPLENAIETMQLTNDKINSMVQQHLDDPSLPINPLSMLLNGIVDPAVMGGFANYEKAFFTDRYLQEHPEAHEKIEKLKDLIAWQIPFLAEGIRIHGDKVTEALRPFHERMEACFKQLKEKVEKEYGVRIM
The experiment in a line: In vitro GEF assay: Rac activation by DOCK1 DHR-2 domain. Type of experiment: biochemical, mice and humans. As to conditions: in words; for selective inhibitory activity against DOCK1 versus DOCK2: GEF assay DOCK1 vs DOCK2 DHR-2 domain. On the procedure: DOCK1 and DOCK2, i.e., DOCK-A subfamily members, both activate Rac by catalyzing the GTP-GDP exchange reaction for Rac via their DHR-2 domains. Therefore, in this Pharmacological Test, the inhibitory effect of the compounds of the present invention on Rac activation by DOCK1 or DOCK2 was assessed in an in vitro GEF assay by using polypeptide fragments corresponding to the DHR-2 domain of DOCK1 or DOCK2 from mice and humans. The in vitro GEF assay was performed using a labeled GTP (Bodipy-FL-GTP, Invitrogen), which has a property of increasing the fluorescence intensity when bound to Rac.
The polypeptide fragments corresponding to the DHR-2 domain of DOCK1 or DOCK2 were prepared by expression in E. coli Arctic express (DE3) cells as N-terminal. Histidine-SUMO tag-fused recombinant proteins, followed by purification by affinity column chromatography on nickel-NTA columns.
Rac was prepared by expression in E. coli BL21 (DE3) cells as an N-terminal GST tag-fused recombinant protein, followed by purification by affinity column chromatography on glutathione-Sepharose columns.
Each of the polypeptide fragments corresponding to the DHR-2 domain of DOCK1 or DOCK2, and a predetermined concentration of each test compound (the compounds of the present invention: 33 types of compounds; and comparative compound: TBOPP) dissolved in DMSO were incubated in a reaction solution A (pH 7.0), which contained 20 mM of MES-NaOH, 150 mM of NaCl, 10 mM of MgCl2, and 20 μM of GDP for 20 minutes at room temperature while being shielded from light to thus prepare GEF pretreated products. The final concentration of DMSO was adjusted to 1 mass % in all of the test samples. For a control test, a GEF pretreated product (control) was prepared by incubation in the same manner using DMSO with no test compounds, instead of the DMSO used above in which each test compound was dissolved.
Separately, Rac was added to the reaction solution A (pH 7.0) to a concentration of 15 μM, and was allowed to stand on for 30 min to form a GDP-Rac complex. Bodipy-FL-GTP was added to a concentration of 3.6 μM to 100 μL of the reaction solution A that contained the thus-prepared GDP-Rac complex, and equilibrated at 30° C. for 2 minutes. After equilibration, 50 μL of the GEF pretreated product prepared as described above was added and reacted at 30° C.
Changes in fluorescence intensity of Bodipy-FL-GTP in the reaction solutions were monitored using an EnSpire spectrofluorometer (Perkin Elmer) (excitation wavelength: 488 nm, fluorescence wavelength: 514 nm). The measured values were corrected so that the fluorescence intensity at the beginning of the reaction (0 sec) was 0. Then, an approximate curve (hyperbola) was obtained by plotting the calculated correction values on the y-axis and the time (t) on the x-axis using GraphPad Prism5 (GraphPad software), and the slope at t=0 to 10 seconds was defined as the initial velocity of the guanine nucleotide exchange reaction. The IC50 value was calculated taking the initial reaction velocity of the control, to which only a solvent (DMSO) was added, as 100%.
Based on the obtained results, columns A and B of FIG. 1, FIG. 2, FIG. 3-1, and FIG. 3-2 show the results evaluating the inhibitory effect on Rac activation by DOCK1 (DHR-2 domain) (IC50 value), and DOCK1-selective inhibitory effect (DOCK1/DOCK2 selectivity) of each test compound. The inhibitory effect on Rac activation by DOCK1 (DHR-2 domain) (IC50 value) was determined from the reaction inhibition curve plotted using values of Rac activation by the DOCK1 DHR-2 domain in the presence of various concentrations of the test compounds, taking the values of the control as 100%. […]

For `COC(=O)c1cc(S(=O)(=O)N2CCCC2)cn1CC(O)c1ccc(-c2cccc(C(F)(F)F)c2)cc1` (stereo not shown) [HS-6, methyl 1-(2-hydroxy-2-(3′-(trifluoromethyl)-[1,1′-biphenyl]-4-yl)ethyl)-4-(pyrrolidin-1-yl-sulfonyl)-1H-pyrrole-2-carboxylate], in experiment [1], the “percent cell invasion inhibition compared with TBOPP” value (“percent cell invasion inhibition” below) was “higher percent cell invasion inhibition than TBOPP”. In addition, the “selective inhibitory activity against DOCK1 versus DOCK2” value at DOCK1 (DHR-2 domain) was “higher selective inhibitory activity against DOCK1 than against DOCK2”.
With `CC(=O)c1cc(S(=O)(=O)N2CCCC2)cn1CC(=O)c1ccc(-c2cccc(C(F)(F)F)c2)cc1` [HS-16, 2-(2-acetyl-4-(pyrrolidin-1-yl-sulfonyl)-1H-pyrrol-1-yl)-1-(3′-(trifluoromethyl)-[1,1′-biphenyl]-4-yl)ethane-1-one], in experiment [1], the “percent cell invasion inhibition” value is “higher percent cell invasion inhibition than TBOPP”. In addition, at DOCK1 (DHR-2 domain), the “selective inhibitory activity against DOCK1 versus DOCK2” value is “higher selective inhibitory activity against DOCK1 than against DOCK2”.
Turning to `Cc1cc(-c2ccc(C(=O)Cn3cc(S(=O)(=O)N4CCCC4)ccc3=O)cc2)ccc1N(C)C` [KS-16, 1-(2-(4′-(dimethylamino)-3′-methyl-[1,1′-biphenyl]-4-yl)-2-oxoethyl)-5-(pyrrolidin-1-yl-sulfonyl)pyridin-2(1H)-one], the “percent cell invasion inhibition” value in experiment [1] is “higher percent cell invasion inhibition than TBOPP”.
Consider `O=C(Cn1cc(S(=O)(=O)N2CCCC2)ccc1=O)c1ccc(-c2ccc3cccnc3c2)cc1` [KS-18, 1-(2-oxo-2-(4-(quinolin-7-yl)phenyl)ethyl)-5-(pyrrolidin-1-yl-sulfonyl)pyridin-2(1H)-one], for which, in experiment [1], the “percent cell invasion inhibition” value is listed as “higher percent cell invasion inhibition than TBOPP”.
`O=C(Cn1cc(S(=O)(=O)N2CCCC2)ccc1=O)c1ccc(-c2cccc(SC(F)(F)F)c2)cc1` [KS-21, 1-(2-oxo-2-(3′-((trifluoromethyl)thio)-[1,1′-biphenyl]-4-yl)ethyl)-5-(pyrrolidin-1-yl-sulfonyl)pyridin-2(1H)-one]: in experiment [1], the “percent cell invasion inhibition” value is “higher percent cell invasion inhibition than TBOPP”.
As for `O=C(Cn1cc(S(=O)(=O)N2CCCC2)ccc1=O)c1ccc(-c2cccc(C(F)(F)F)n2)cc1` [KS-22, 1-(2-oxo-2-(4-(6-(trifluoromethyl)pyridin-2-yl)phenyl)ethyl)-5-(pyrrolidin-1-yl-sulfonyl)pyridin-2(1H)-one], the “percent cell invasion inhibition” value in experiment [1] is “higher percent cell invasion inhibition than TBOPP”.
`O=C(Cn1cc(S(=O)(=O)N2CCCC2)ccc1=O)c1ccc(-c2ccc3ncccc3c2)cc1` [KS-23, 1-(2-oxo-2-(4-(quinolin-6-yl)phenyl)ethyl)-5-(pyrrolidin-1-yl-sulfonyl)pyridin-2(1H)-one]: in experiment [1], the “percent cell invasion inhibition” value is on record as “higher percent cell invasion inhibition than TBOPP”.
As to `O=C(Cn1cc(S(=O)(=O)N2CCC(c3ccc(-c4cc(F)c(F)c(F)c4)cc3)CC2)ccc1=O)c1ccc(-c2cc(F)c(F)c(F)c2)cc1` [KS-59, 1-(2-oxo-2-(3′,4′,5′-trifluoro-[1,1′-biphenyl]-4-yl)ethyl)-5-((4-(3′,4′,5′-trifluoro-[1,1′-biphenyl]-4-yl)piperidin-1-yl)sulfonyl)pyridin-2(1H)-one], the “percent cell invasion inhibition” value in experiment [1] is given as “higher than those of TBOPP”. For the same compound, at DOCK1 (DHR-2 domain) (GEF assay), the “DOCK1-inhibiting activity compared with TBOPP” value is given as “higher than those of TBOPP” and the “selective inhibitory activity against DOCK1 compared to TBOPP” value was “higher than those of TBOPP”. For the same compound, the “selective inhibitory activity against DOCK1 versus DOCK2” value on DOCK1 (DHR-2 domain) is listed as “higher selective inhibitory activity against DOCK1 than against DOCK2”.
Consider `Nc1cc(S(=O)(=O)N2CCCC2)cn(CC(=O)c2ccc(-c3cccc(C(F)(F)F)c3)cc2)c1=O` [RT-13, 3-amino-1-(2-oxo-2-(3′-(trifluoromethyl)-[1,1′-biphenyl]-4-yl)ethyl)-5-(pyrrolidin-1-yl-sulfonyl)pyridin-2(1H)-one], for which the “percent cell invasion inhibition” value in experiment [1] is reported as “higher percent cell invasion inhibition than TBOPP”.
Take `O=C(Cn1cc(S(=O)(=O)N2CCCC2)cc1-c1ncco1)c1ccc(-c2cccc(C(F)(F)F)c2)cc1` [RT-58, 2-(2-(oxazol-2-yl)-4-(pyrrolidin-1-yl-sulfonyl)-1H-pyrrol-1-yl)-1-(3′-(trifluoromethyl)-[1,1′-biphenyl]-4-yl)ethan-1-one]: the “percent cell invasion inhibition” value in experiment [1] is listed as “higher percent cell invasion inhibition than TBOPP”. The “selective inhibitory activity against DOCK1 versus DOCK2” value at DOCK1 (DHR-2 domain) is “higher selective inhibitory activity against DOCK1 than against DOCK2”.

Values taken from patent US20220017486A1, “DOCK1-INHIBITING COMPOUND AND USE THEREOF” (KYUSHU UNIVERSITY, NATIONAL UNIVERSITY CORPORATION, priority 2018, published 2022).
